Two compounds from patent US20240279226A1, “ERGOLINE-DERIVED AGONISTS OF THE 5-HT2A RECEPTOR” (priority 2021, published 2024) can be followed below.

For assay [1], the target named is 5-HT2A receptor (Homo sapiens (Human), UniProt P28223). Put plainly: biochemical. It counts as binding. The following applies: radioligand [3H]-ketanserin, cell membrane, 27° C. 90 min.
Procedure: Compound binding was calculated as a % inhibition of the binding of a radioactively labeled ligand specific for each receptor. Results with inhibition >50% were considered to represent significant effects. In each experiment, the respective reference compound was tested in parallel with the test compounds, and the data were compared with previous values determined at Eurofins.
Bovine Serum Albumin (BSA), calcium chloride (CaCl2)), and polyethylenimine, branched (PEI) were purchased from Sigma. Tris(hydroxymethl)aminomethane (Tris) was purchased from Alfa Aesar.
Microbeta^2 microplate counter, MicroBeta Filtermate-96, and UniFilter-96 GF/C were purchased from PerkinElmer. TopSeal was purchased from Biotss. Seven Compact pH meter was purchased from Mettler Toledo. Ultrapure water meter was purchased from Sichuan Ulupure. Benchtop Centrifuge was purchased from Hunan Xiangyi. Microplate shaker was purchased from Allsheng. 384-Well Polypropylene Microplate was purchased from Labcyte. 96 round well plate was purchased from Corning. 96 round deep well plate was purchased from Axygen. Echo was purchased from LABCYTE. • 1. Prepare the assay buffer following the table below:
• 2. […] Read the plate by using a Microbeta^2 microplate counter.
• 11. […] The IC50 is determined by fitting percentage of inhibition function of compound concentrations with Hill equation using XLfit.
Assay [2] deals with 5-HT2C receptor (Homo sapiens (Human), UniProt P28335). Put plainly: biochemical. It is filed as binding. As to conditions: radioligand [3H]-Mesulergine, cell membrane, 27° C. 60 min.
Sequence of 5-HT2C receptor (P28335 33-458 limits assumed): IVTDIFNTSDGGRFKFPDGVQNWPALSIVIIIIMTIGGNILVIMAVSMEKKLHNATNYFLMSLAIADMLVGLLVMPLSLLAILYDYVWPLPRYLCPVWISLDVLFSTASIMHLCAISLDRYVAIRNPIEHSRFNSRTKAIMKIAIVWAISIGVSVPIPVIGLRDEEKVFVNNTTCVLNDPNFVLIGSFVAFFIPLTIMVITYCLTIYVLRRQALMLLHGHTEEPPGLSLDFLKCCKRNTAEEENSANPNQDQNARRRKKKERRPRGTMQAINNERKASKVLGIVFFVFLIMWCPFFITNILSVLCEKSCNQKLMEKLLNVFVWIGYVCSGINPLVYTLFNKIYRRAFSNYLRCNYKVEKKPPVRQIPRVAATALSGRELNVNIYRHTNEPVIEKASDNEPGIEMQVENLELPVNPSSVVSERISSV

Turning to `[2H]C([2H])([2H])N1C[C@H](NC(=O)N(CC)OC)C=C2c3cccc4[nH]cc(c34)C[C@H]21` [Example 6b, 1-ethyl-1-methoxy-3-((6aR,9R)-7-(methyl-d3)-4,6,6a,7,8,9-hexahydroindolo[4,3-fg]quinolin-9-yl) urea], the 50% inhibitory concentration (IC50) in assay [1] was found to be 6.5 nM; in assay [2] it was 312 nM.

With `[2H]C([2H])([2H])N1C[C@@H](NC(=O)N(CC)OC)C=C2c3cccc4[nH]cc(c34)C[C@H]21` [Example 6a, 1-ethyl-1-methoxy-3-((6aR,9S)-7-(methyl-d3)-4,6,6a,7,8,9-hexahydroindolo[4,3-fg]quinolin-9-yl)urea], the IC50 was determined as 2.6 nM in assay [1] and 96 nM in assay [2].
